# Results: a melting point compilation (Tetko et al.; mined from patent text by program, amines drawn as free bases though some values may be those of a salt)
row,melting point [°C],SMILES
1,155 to 157,CC(=NNc1ccc(Cl)c2c1CC(C)O2)C(=O)O (stereo not drawn)
2,224 to 226,CC(C)(CO)NC1=NS(=O)(=O)c2sc(Cl)cc2N1
3,137 to 138,Cc1cccc(-c2cc(O)c(SCc3ccccc3)c(=O)o2)c1
4,124 to 125,O=C(C(=O)c1cccc(OCc2ccccc2)c1)c1cc[nH]c1
5,106 to 108,CCC(C)C(C#N)NCC(O)c1ccccc1 (stereo not drawn)
6,228 to 230,O=C(O)c1cn(-c2ccncc2F)c2nc(Cl)c(F)cc2c1=O
7,184 to 186,C[C@@H](n1cnc2cc(-c3ccc(N)cc3)sc2c1=O)[C@](O)(Cn1cncn1)c1ccc(F)cc1F
8,229 to 231,"CC1COc2c(N3CCC(n4cncn4)C3)c(F)cc3c(=O)c(C(=O)O)cn1c23 (single isomer, unassigned; (-))"
9,116 to 117,O=C(N[C@H](Cc1ccccc1)C(=O)O)OCc1ccc(COc2ccccc2)cc1
10,102 to 103,COc1nc(O)nn1C(C)C
11,232,CCOC(=O)c1c[nH]c2ccc(OC3CCN(C)CC3)nc12
12,136,CC(=O)N1CCC(CC(=O)c2ccc(N(C)C)cc2)CC1
13,148 to 150,CCOCc1nc2c(N)nc3cccnc3c2n1CCCCS(=O)(=O)NC
14,47 to 49,CCOC(=O)C1=CCCC[C@H]1S(=O)(=O)Nc1ccc(F)cc1Cl
15,188 to 190,CC(C)(C)[Si](C)(C)Oc1ccc2c(c1)OC(O)c1c-2ccc2cc(O[Si](C)(C)C(C)(C)C)ccc12 (stereo not drawn)
16,135,COc1ccc(Oc2cc(N)c(F)cc2C#N)cc1
17,162 to 163,CN1CCN(c2cccc3ccc(C(O)c4ccccc4)cc23)CC1 (stereo not drawn)
18,179 to 182,Nc1ccc2nc(-c3ccc4c(c3)OCCO4)ncc2c1
19,226 to 230,CC(C)N(CCNc1nc(Nc2cccc(NS(C)(=O)=O)c2)nc2[nH]cnc12)C(C)C
20,44 to 46,COC(=O)c1cc(CN=[N+]=[N-])cc([N+](=O)[O-])c1
21,75 to 76.5,CCCN1CC=C(c2ccc(Cl)cc2)C(C(=O)OCc2ccccc2)C1 (stereo not drawn)
22,152 to 155,COC(=O)c1cc(Cl)c(Oc2ccc(O)cc2)c(Cl)c1
23,220,CCOc1ccc2c(c1)n(C1CCCCC1)c(=O)n2S(=O)(=O)c1ccc(N(C)C)cc1OC
24,148 to 150,CN(C)CC1CCc2cc(NC(=O)c3ccc(-c4ccc(N)cc4)cc3)ccc2C1 (stereo not drawn)

row,melting point [°C],SMILES
1,183 to 185,CC(C)CCNC(Nc1ccccc1)=C(C#N)C#N
2,77 to 78,COCNC(=O)CNC(=O)OCc1ccccc1
3,180 to 184,NCCCn1nc2c3c(c(Cl)ccc31)C(=O)c1c(OCc3ccccc3)ccc(OCc3ccccc3)c1-2
4,114 to 117,COc1ncnc(-c2cc([N+](=O)[O-])c(F)cc2F)c1C
5,192,O=C(O)C[C@H](NC(=O)CNC(=O)c1csc(NC(=O)NCc2ccccc2)n1)C(=O)Nc1ccccc1C(=O)O
6,47 to 49,Nc1nc(OC(F)(F)F)cc(C(F)(F)F)n1
7,50,CCSCCn1c(=N)sc2cc(C(F)(F)F)ccc21
8,231 to 232,Cc1cccc(NS(=O)(=O)c2ccc(N3CCNC3=O)cc2)c1C
9,166 to 168,CP(C)(=O)CNc1cc(Oc2ccc(C(F)(F)F)cc2Cl)ccc1[N+](=O)[O-]
10,102 to 104,CCCCCC(CC(=O)Nc1cc(C(N)=O)ccc1C(C)(C)C)c1cc(Br)c(OC)cc1OC (stereo not drawn)
11,98.5 to 100,CC1(C)OC(C=Cc2ccc(F)cc2F)=CC1=O
12,119 to 121,COc1ccc(-n2nc(CBr)cc2-c2ccc(C)cc2)cc1
13,258 to 260,COC(=O)c1cc(=O)c2oc3cc(OC)ccc3c(=O)c2[nH]1
14,96 to 98,Nc1ccc(-c2cnc(COCc3cc4ccccc4o3)o2)cc1
15,120,Cc1cccc(-c2nc3ccc(OCCCN4CCCC4)cc3n2Cc2ccccc2)c1
16,142,O=C1CCC(c2ccc(Br)cc2)N1 (stereo not drawn)
17,120 to 121,COc1ccc(-c2nc3cc(OC)cc(-c4ccco4)c3o2)cc1
18,92 to 94,C=CCc1cc(OCC)c2c(c1OC)S(=O)(=O)N(Cc1ccccc1)C2=O
19,239 to 241,O=C1Nc2ccccc2SC(c2ccccc2)=C1Cl
20,69 to 70,ClCN1C=C(Cl)C(Cl)=CN1
21,124 to 125,CN1CCC(O)(C(c2cc(Cl)ccc2F)n2cccc2)CC1 (stereo not drawn)
22,184 to 185,N#Cc1ccc(C2(COc3cccc4cc(NS(=O)(=O)C(F)(F)F)ccc34)N=CNO2)cc1 (stereo not drawn)
23,87 to 88,COc1ccc2c(c1)C(C(=O)N(Cc1ccc(Cl)cc1)c1ccc(C(C)C)cc1)CCC2 (stereo not drawn)
24,> 260,Cc1nc2c(N)nc3cccnc3c2n1CC1(O)CCNCC1

row,melting point [°C],SMILES
1,107 to 108,COc1cc(C=O)ccc1OCC(O)CN1CCC(c2noc3cc(F)ccc23)CC1 (stereo not drawn)
2,156 to 158,CC1(C)Oc2ccc(C#N)cc2[C@@H](NC(=O)C2=C(c3ccccc3)CCC2)[C@@H]1O
3,131 to 132,CCOC(=O)[C@H](Cc1cc(O)c(O)cc1I)NC=O
4,260 to 264,CCCc1cc2c(=O)n3cc(C(N)=O)ccc3nc2s1
5,174 to 175,Clc1cccc(NC2=Nc3ccc(Cl)cc3CS2)c1
6,47 to 49,CC(C)C(=O)CCC(=O)c1ccc(F)cc1
7,60.5 to 61.5,O=C(CSCCNC(=O)c1ccco1)NCCCOc1cccc(CN2CCCCC2)c1
8,155,COc1ccc(CNC(=O)c2ccc3ccccc3c2Br)cc1
9,178 to 181,Cc1nc2cnccc2n1-c1ccc(C=Cc2cccc(OCc3nc4cc(F)ccc4s3)c2)cc1
10,109 to 111,CCC(CC)Nc1nc(NC(C)=O)nc(C(C)(C)F)n1
11,149 to 151,O=C(NC1CSc2ccccc2NC1=O)OCc1ccccc1 (stereo not drawn)
12,222 to 223,Cc1nc(-c2ccc3c(c2)c2cc(-c4ccc(Cl)cc4Cl)c(=O)n(C)c2n3C)co1
13,63 to 65,Nc1ccc(S(F)(F)(F)(F)F)cc1
14,119,CCc1nn(-c2ccccc2)nc1C(C#N)C(=O)c1c(C)c(C)nn1C (stereo not drawn)
15,174 to 176,CCc1nc(/C=C/c2cn(-c3ccccc3C)nc2O)cs1
16,89 to 90,Cc1ccc(-n2cccc2)c(N)c1
17,90 to 92,O=S(=O)(Cl)c1ccc(Cl)c(CBr)c1Cl
18,234 to 235,O=C(Nc1c(C(=O)O)[nH]c2cc(Cl)cc(Cl)c12)c1ccccc1Cc1ccccc1
19,135 to 145,C1=C2c3ccccc3C3CC2(CN1Cc1ccccc1)c1ccccc13 (stereo not drawn)
20,72 to 73.5,COC(=O)CCc1ccc(NC(=O)OC(C)(C)C)cc1
21,186 to 188,COC(=O)C(NS(=O)(=O)c1ccc(-c2ccc(NC(=O)c3oc4cccc(C(C)OC)c4c3C)cc2)cc1)C(C)C (stereo not drawn)
22,195 to 198,CN(C)C=NS(=O)(=O)c1nc2ccc(O)cc2s1

row,SMILES,melting point [°C]
1,CN(C)Cc1nc(CO)nn1-c1ccc(Cl)cc1C(=O)c1ccccc1,198 to 200
2,C=C(C)C(=O)OCCOC(Cl)C(Cl)(Cl)Cl (stereo not drawn),44 to 45
3,COc1cc2c(=O)n3cccc3cnc2cc1OCc1ccccc1,58 to 61
